From patent US10107816B2, “G-protein coupled receptor-associated diagnostics and therapeutics for B-cell chronic lymphocytic leukemia” (THE REGENTS OF THE UNIVERSITY OF CALIFORNIA, priority 2013, dated 2018)
“Also recorded” adds a separate entry of the source. Where no end group is shown, it is not given here.

Tests used:
[1] = tested on: NK.tert bone marrow-derived stromal cells; assay: Stromal cell proliferation ([3H] thymidine) with conditioned media from indolent CLL cultures; format: cell-based, human; conditions: conditioned media from indolent CLL cells incubated 24 hr with IR284 (100 nM) or VIP
Description: Mononuclear cells derived from the blood of Indolent CLL patients were grown in tissue culture media (RPMI 1640+10% Heat-Inactivated Fetal Bovine Serum) and incubated for 24 hr in the absence of any drug (“untreated CLL”), in the presence of the phosphodiesterase 4/7 inhibitor IR284 (100 nM) or the VIPR agonist VIP […]. In the 24 hr incubation period products excreted from the cells in response to the treatments accumulate in the media, which is called “conditioned media” (CM). CM was harvested from the cell cultures by subjecting them to centrifugation at 233 rcf for 10 minutes at 4° C. to pellet cells and debris. The liquid portion was removed and used as CM. To assess the impact of CM from the indolent CLL cultures upon the proliferation of bone marrow-derived stromal cells (which make up the supportive microenvironment of CLL in vivo), CM was added to NK.tert bone marrow-derived stromal cells along with [3H] thymidine to assess DNA synthesis/cell proliferation

CLL cells [2] = assay: Assay of cellular apoptosis (annexin V/PI flow cytometry) in CLL cells; format: cell-based, human; conditions: for apoptosis in combination with IR284: with PDE inhibitor IR284 (100 nM), compared to IR284 alone
Description: (§1) FIG. 7 illustrates apoptosis of CLL cells (data from Aggressive and Indolent CLL cells), left panel, and normal B-cells (n=3), right panel, in response to 1 μM VIP+100 nM IR284. Statistical significance, determined by Student's t-test, is shown (*=P<0.05) compared to cells treated only with 100 nM IR284.
(§2) Cycle thresholds (lower value denotes higher expression) normalized to 28S. Statistical significance was determined by Student's t-test and is depicted by (***) for P<0.001 compared to normal. […] Statistical significance was determined by paired t test with (*) P<0.05 compared to IR284 alone.
(§3) Flow cytometry was used to detect annexin V/fluorescein isothiocyanate (FITC) and propidium iodide (PI) staining to determine the apoptotic population of treated cells. CLL-cells or normal PBMC (1,000,000/ml) in […]+10% FBS were incubated for 48 hr in standard culture conditions with or without drugs and then assayed for annexinV/PI staining per manufacturer's protocol using a FACScan (Becton Dickinson Biosciences, San Jose, Calif.) flow cytometer.

CLL cells [3] = assay: cAMP accumulation assay (cAMP radioimmunoassay); format: cell-based, human; conditions: aggressive CLL cells (n=8); 1 μM VIP + 100 nM IR284, relative to 100 nM IR284 alone; P<0.05
Description: The results are expressed relative to cAMP levels in cells treated only with 100 nM IR284, a PDE4/7 inhibitor. Statistical significance was determined by paired t test and is shown (*=P<0.05) compared to cells treated only with IR284.
as §2
One million CLL-cells or normal PBMC/ml in […] buffer+10% FBS were plated in a 12-well cell culture plate and incubated for 20 min at 37° C. in air plus 5% CO2 with a dual PDE4/7 inhibitor (IR284). VIP or ACTH were then added to the 12-well culture plate and incubated for 10 min at 37° C. in air plus 5% CO2. The cells were then centrifuged at 1200 rpm for 5 min at 4° C. The media was aspirated and 50 μl of 7.5% trichloroacetic acid (TCA) was added to each cell pellet to release cAMP from the cells. The TCA-suspended sample was diluted in 1 ml 10 mM sodium acetate and acetylated with 20 ul triethylamine and 10 ul acetic anhydride. The competitive binding assay consists of 50 μl of diluted, acetylated sample, 25 μl AMP antibody and 25 μl ^125I-labeled cAMP (Perkin Elmer). […]

normal B-cells = assay: Assay of cellular apoptosis (annexin V/PI flow cytometry) in normal B-cells; format: cell-based, human; conditions: normal B-cells (n=3)
Description: as §1, §3

CLL cells [4] = assay: Spontaneous apoptosis of CLL cells (Annexin V surface staining); format: cell-based, human
Description: FIG. 12 illustrates that the peptide hormone insulin-like peptide 3 (INSL3) protects CLL cells from spontaneous apoptosis.

LGR8 [5] = target: T1, LGR8 (Homo sapiens, UniProt Q8WXD0); conditions: recombinant LGR8 in 293T cells; cited from earlier work
T1 construct: expressed in transfected cells; host or cells: 293T cells

LGR8 [6] = conditions: germ cells; via inhibitory G protein Gi; cited from earlier work
[7] = tested on: arrested oocytes in preovulatory follicles; conditions: in vitro and in vivo; cited from earlier work
male germ cell = conditions: in vivo; cited from earlier work
[8] = indolent CLL cells, with or without VIP or ACTH, with a phosphodiesterase inhibitor

T1 sequence (Q8WXD0 whole entry): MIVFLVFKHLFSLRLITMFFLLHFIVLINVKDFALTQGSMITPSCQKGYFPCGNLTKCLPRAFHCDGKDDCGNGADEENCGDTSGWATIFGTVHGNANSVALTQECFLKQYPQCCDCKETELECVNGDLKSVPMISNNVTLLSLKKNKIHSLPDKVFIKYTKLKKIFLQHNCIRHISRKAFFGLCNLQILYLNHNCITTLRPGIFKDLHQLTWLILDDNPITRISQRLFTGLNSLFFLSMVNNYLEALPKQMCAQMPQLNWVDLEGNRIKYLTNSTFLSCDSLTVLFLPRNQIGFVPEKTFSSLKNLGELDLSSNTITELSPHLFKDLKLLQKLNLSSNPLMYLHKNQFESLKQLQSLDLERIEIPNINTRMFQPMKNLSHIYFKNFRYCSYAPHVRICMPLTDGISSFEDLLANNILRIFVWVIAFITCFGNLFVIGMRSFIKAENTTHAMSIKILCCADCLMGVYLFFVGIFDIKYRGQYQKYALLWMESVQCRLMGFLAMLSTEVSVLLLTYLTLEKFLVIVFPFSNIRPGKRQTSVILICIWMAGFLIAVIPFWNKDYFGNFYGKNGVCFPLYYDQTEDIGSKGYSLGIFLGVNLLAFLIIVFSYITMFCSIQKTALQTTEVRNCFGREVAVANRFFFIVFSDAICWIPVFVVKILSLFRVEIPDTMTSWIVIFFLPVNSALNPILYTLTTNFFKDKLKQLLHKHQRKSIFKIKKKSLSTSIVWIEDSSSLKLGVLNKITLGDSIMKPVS

## COc1ccc(C2=NN(C3CCN(C(=O)N4CCOCC4)CC3)C(=O)C3CC=CCC23)cc1Cl (stereo not shown) [IR284, (4-(3-chloro-4-methoxyphenyl)-2-(1-morpholine-4-carbonyl)piperadin-4-yl)-4a, 5,8,8a-tetrahydrophthalazin-1(2H)-one]
[1]
  proliferation of stromal cells (DNA synthesis): suppressed proliferation

## ACTH: a melanocortin 2 receptor [MC2R] agonist, purchased from GenWay (SYSMEHFRWGKPVGKKRRPVKVYPNGAEDESAEAFPLEF; Corticotropin; UniProt P01189 138-176, looked up)
CLL cells [2]; aggressive CLL cells, 48 hr
  apoptosis: promote apoptosis
CLL cells [2]; aggressive CLL cells
  apoptosis in combination with IR284: increase apoptosis
CLL cells [2]; [8]
  apoptosis: not indolent CLL

## VIP: vasoactive intestinal peptide receptor agonist, purchased from Tocris Bioscience (HSDAVFTDNYTRLRKQMAVKKYLNSILN; ends and bridges not checked; UniProt P01282 125-152, looked up)
CLL cells [3]
  cAMP accumulation: significantly enhanced
CLL cells [2]; CLL cells, P<0.05, n=3
  apoptosis: induced apoptosis
CLL cells [2]; aggressive CLL cells, 48 hr
  apoptosis: increases apoptosis; also recorded: promote apoptosis
CLL cells [2]; aggressive CLL cells
  apoptosis in combination with IR284: significantly enhanced; also recorded: increase apoptosis
CLL cells [2]; [8]
  apoptosis: not indolent CLL
Normal B-cells
  apoptosis: does not promote apoptosis
[1]
  proliferation of stromal cells (DNA synthesis): suppressed proliferation

B1: INSL3: peptide hormone insulin-like peptide 3, LGR8 agonist (peptide, UniProt P51460 21-55; P51460 106-131, looked up)
Insulin-like 3 B chain: LGPAPTPEMREKLCGHHFVRALVRVCGGPRWSTEA
Insulin-like 3 A chain: AAATNPARYCCLSGCTQQDLLTLCPY
CLL cells [4]
  protection from apoptosis: protects CLL cells from programmed cell death
LGR8 [5]
  adenylyl cyclase activation / intracellular cAMP: increases accumulation of intracellular cAMP
LGR8 [6]
  cAMP production: decreases in cAMP production
[7]
  meiotic progression of arrested oocytes: initiates meiotic progression
Male germ cell
  male germ cell apoptosis: suppresses male germ cell apoptosis
